Data on 79 sequences can be found in the OligoGym collection.

After the bases stand the sugars from the 5' end (letter, count) and the backbone: PS all phosphorothioate, else s phosphorothioate and o phosphodiester by linkage. Methylation of C is not given here. e = 2'-O-(2-methoxyethyl) (MOE); k = constrained ethyl (cEt); d = 2'-deoxy (DNA); m = 2'-O-methyl

The target of the data set is HSD17B13. The settings on record: ASO, HepaRG.

Consider “GAGTGCATCTTAAGAT (sugars k3 d1 m1 d8 k3, PS)”, for which the target mRNA inhibition (1 µM) is 7%.
Take GAGTTATCTGGTTTGC (sugars k3 d10 k3, PS): the target mRNA inhibition (0.02 µM) was 0%; the target mRNA inhibition (0.078 µM) is 0%; the target mRNA inhibition (0.313 µM) stood at 27%; the target mRNA inhibition (1 µM) came to 84%; the target mRNA inhibition (1.25 µM) amounted to 68%; the target mRNA inhibition (5 µM) worked out at 91%.
Turning to GAGTTATTCTCTTGAC (sugars k3 d10 k3, PS), the target mRNA inhibition (1 µM) worked out at 57%.
As for GAGTTCTACACCACAC (sugars k3 d10 k3, PS), the target mRNA inhibition was determined as 0% (0.02 µM); 19% (0.078 µM); 32% (0.313 µM); 76% (1 µM); 65% (1.25 µM); 87% (5 µM).
Where the note is “1 µM”, “GAGTUGCACCGTTTTG (sugars k3 d1 m1 d8 k3, PS)” gave a target mRNA inhibition of 63%.
GATAATATGTGACTTG (sugars k3 d10 k3, PS) came in with a target mRNA inhibition (1 µM) of 68%.
In turn, GATAATTTGGTGTCAT (sugars k3 d10 k3, PS) yielded a target mRNA inhibition (1 µM) of 59%.
Consider GATAGTGAACATACAT (sugars k3 d10 k3, PS), for which the target mRNA inhibition (1 µM) was 54%.
In turn, “GATATTCTGTGGCATG (sugars kkdddddddddkekek, PS)” showed a target mRNA inhibition (1 µM) of 52%.
Where the note is “1 µM”, GATCATTGCAGAAAGA (sugars k3 d10 k3, PS) gave a target mRNA inhibition of 23%.
GATCTCTTAGCTGTGC (sugars k3 d10 k3, PS) returned a target mRNA inhibition (1 µM) of 64%.
As for “GATCTCTTAGCTGTGC (sugars kkdddddddddkekek, PS)”, for the setting “1 µM”, the target mRNA inhibition is 45%.
As for GATCTGAGTTACATTA (sugars k3 d10 k3, PS), the target mRNA inhibition (1 µM) was 69%.
For GATGAGTAGGCAACTG (sugars k3 d10 k3, PS), the target mRNA inhibition (1 µM) amounted to 42%.
For the sequence “GATGCTCCATAATAAT (sugars k3 d1 m1 d8 k3, PS)”, the target mRNA inhibition (1 µM) was 24%.
GATGCTCCATAATAAT (sugars k3 d10 k3, PS) displayed a target mRNA inhibition (1 µM) of 42%.
Take GATGGTGATCAGAAGC (sugars k3 d10 k3, PS): under “1 µM”, the target mRNA inhibition is 52%.
Consider “GATGTAGTGGGAGTCG (sugars kkdddddddddkekek, PS)”, for which the target mRNA inhibition (1 µM) amounted to 38%.
On to “GATTAAGCAGAATTGT (sugars kkdddddddddkekek, PS)”, for which the target mRNA inhibition (1 µM) turned out to be 31%.
Same read-out and setting: the result for GATTACAGCATCAAGA (sugars k3 d10 k3, PS) reads 52%.
As to “GATTAGTCTTGATGTA (sugars k3 d9 k3 e1, PS)”, under “1 µM”, the target mRNA inhibition is 48%.
Take “GATTAGTCTTGATGTA (sugars kkdddddddddkekek, PS)”: the target mRNA inhibition (1 µM) amounted to 56%.
As for GATTGTTACATCACCC (sugars k3 d10 k3, PS), the target mRNA inhibition was found to be 15% (0.02 µM); 32% (0.078 µM); 33% (0.313 µM); 65% (1 µM); 74% (1.25 µM); 91% (5 µM).
As for GATTTAGAGAGCGATA (sugars k3 d10 k3, PS), under “1 µM”, the target mRNA inhibition was 44%.
Turning to GCAATGAGATTACCCC (sugars k3 d10 k3, PS), the target mRNA inhibition turned out to be 3% (0.02 µM); 26% (0.078 µM); 58% (0.313 µM); 83% (1 µM); 83% (1.25 µM); 89% (5 µM).
Turning to GCAATTTACTTTCAGC (sugars k3 d10 k3, PS), the target mRNA inhibition (1 µM) was 66%.
Sequence GCACCAACTATGTAAT (sugars k3 d10 k3, PS) gave a target mRNA inhibition (1 µM) of 53%.
The same measure, in the same setting: the result for “GCAGAAATTCACCTTG (sugars kkdddddddddkekek, PS)” reads 53%; that for GCAGCATTGATTCGAA (sugars k3 d10 k3, PS), 63%.
GCATAAGAGCCAAACT (sugars k3 d10 k3, PS): the target mRNA inhibition (1 µM) turned out to be 67%.
For the sequence GCATCAAGACATTCTA (sugars k3 d10 k3, PS), for the setting “1 µM”, the target mRNA inhibition came out at 72%.
Same read-out and setting: the result for “GCATCTTAAGATACCC (sugars k3 d1 m1 d8 k3, PS)” reads 65%.
With “GCATCTTAAGATACCC (sugars k3 d9 k3 e1, PS)”, the target mRNA inhibition was found to be 28% (0.02 µM); 34% (0.078 µM); 58% (0.313 µM); 84% (1 µM); 81% (1.25 µM); 83% (5 µM).
Take GCATGCGCAGTGACGC (sugars k3 d10 k3, PS): the target mRNA inhibition (1 µM) amounted to 36%.
As for “GCATTAATGCCACCCT (sugars kkdddddddddkekek, PS)”, the target mRNA inhibition (1 µM) turned out to be 24%.
Same read-out and setting: the result for GCATTAGATGGTAAGG (sugars k3 d10 k3, PS) reads 64%; that for GCCACAGATTTTCTCC (sugars k3 d10 k3, PS), 49%.
On to GCCAGATTGCACAAAC (sugars k3 d10 k3, PS), for which the target mRNA inhibition (1 µM) is 60%.
In turn, GCCCATCCCCTAAGTT (sugars k3 d10 k3, PS) showed a target mRNA inhibition (1 µM) of 33%.
Still for that read-out and setting: the value for GCCCTTAAGTCATTTT (sugars k3 d10 k3, PS) was 25%; that for GCCGCACACTGAAGCC (sugars k3 d10 k3, PS) was 25%.
The same measure, in the same setting: the value for GCCTAGTTACAAACCA (sugars k3 d10 k3, PS) was 56%; that for GCCTAGTTGCAATGAG (sugars k3 d10 k3, PS) was 61%.
Take GCCTGCTGAAACTTGA (sugars k3 d10 k3, PS): the target mRNA inhibition (1 µM) was 18%.
For the sequence GCGCTTATTAATATCC (sugars k3 d10 k3, PS), the target mRNA inhibition (1 µM) was found to be 3%.
Where the note is “1 µM”, GCTAAGTAGTAATTCT (sugars k3 d10 k3, PS) returned a target mRNA inhibition of 57%.
Turning to “GCTACTTGAACAGTCT (sugars k3 d1 m1 d8 k3, PS)”, the target mRNA inhibition (1 µM) amounted to 82%.
In turn, “GCTACTTGAACAGTCT (sugars k3 d9 k3 e1, PS)” registered a target mRNA inhibition (1 µM) of 60%.
As for GCTATAGTAATTGCTA (sugars k3 d10 k3, PS), for the setting “1 µM”, the target mRNA inhibition came out at 33%.
In turn, “GCTCCATAATAATAGC (sugars k3 d9 k3 e1, PS)” yielded a target mRNA inhibition (1 µM) of 8%.
Under “1 µM”, GCTCCATAATAATAGC (sugars k3 d10 k3, PS) gave a target mRNA inhibition of 21%.
Consider GCTGAGAGTTATCTGG (sugars k3 d10 k3, PS), for which the target mRNA inhibition (1 µM) is 65%.
The same measure, in the same setting: the value for GCTGCATTAATGCCAC (sugars k3 d10 k3, PS) was 46%.
Sequence GCTGCCTGCTGAAACT (sugars k3 d10 k3, PS) came in with a target mRNA inhibition (1 µM) of 38%.
For the setting “1 µM”, “GCTGCTAGTGCCAAAC (sugars kkdddddddddkekek, PS)” gave a target mRNA inhibition of 62%.
Still for that read-out and setting: the result for GCTGGATATACTGTCC (sugars k3 d10 k3, PS) reads 36%.
For GCTGGTAAAGGTAAGG (sugars k3 d10 k3, PS), for the setting “1 µM”, the target mRNA inhibition came to 65%.
Sequence GCTTAATTTTCGGGTT (sugars k3 d10 k3, PS) had a target mRNA inhibition (1 µM) of 36%.
GCTTACGACAGGTCAT (sugars k3 d10 k3, PS) registered a target mRNA inhibition (1 µM) of 73%.
GCTTAGTTCATTGTGA (sugars k3 d10 k3, PS) yielded a target mRNA inhibition (1 µM) of 45%.
For the setting “1 µM”, GCTTTAATTTTTGAGC (sugars k3 d10 k3, PS) had a target mRNA inhibition of 26%.
As for GCTTTGCAGCATTGAT (sugars k3 d10 k3, PS), where the note is “1 µM”, the target mRNA inhibition worked out at 61%.
In the case of “GCTTTTGTCCACCTTT (sugars k3 d9 k3 e1, PS)”, the target mRNA inhibition was determined as 0% (0.02 µM); 17% (0.078 µM); 37% (0.313 µM); 81% (1 µM); 69% (1.25 µM); 83% (5 µM).
For the setting “1 µM”, GCTTTTGTGATCCAAA (sugars k3 d10 k3, PS) came in with a target mRNA inhibition of 43%.
The sequence GGAAATTGTTGCTGTT (sugars k3 d10 k3, PS) gave a target mRNA inhibition (1 µM) of 46%.
Regarding GGAACAATATGGGATG (sugars k3 d10 k3, PS), the target mRNA inhibition (1 µM) was determined as 36%.
In the case of “GGAATGCTACTTGAAC (sugars k3 d9 k3 e1, PS)”, the target mRNA inhibition (1 µM) amounted to 68%.
Consider “GGAAUGCTACTTGAAC (sugars k3 d1 m1 d8 k3, PS)”, for which the target mRNA inhibition (1 µM) amounted to 62%.
With GGAGATATAACATTAC (sugars k3 d10 k3, PS), the target mRNA inhibition (0.02 µM) is 10%; the target mRNA inhibition (0.078 µM) turned out to be 10%; the target mRNA inhibition (0.313 µM) came to 42%; the target mRNA inhibition (1 µM) came out at 70%; the target mRNA inhibition (1.25 µM) came to 68%; the target mRNA inhibition (5 µM) is 88%.
The sequence “GGAGTGCATCTTAAGA (sugars k3 d9 k3 e1, PS)” registered a target mRNA inhibition (1 µM) of 40%.
Still for that read-out and setting: the value for “GGAGTGCATCTTAAGA (sugars kkdddddddddkekek, PS)” was 34%.
Regarding “GGAGUGCATCTTAAGA (sugars k3 d1 m1 d8 k3, PS)”, the target mRNA inhibition (1 µM) was determined as 32%.
Same read-out and setting: the value for GGATAGTGAACATACA (sugars k3 d10 k3, PS) was 62%.
GGATATACTGTCCCAG (sugars k3 d10 k3, PS): the target mRNA inhibition (1 µM) came out at 9%.
In the case of GGATCTAGAACACTTG (sugars k3 d10 k3, PS), for the setting “1 µM”, the target mRNA inhibition came out at 32%.
Sequence GGATGTTGACCTCAAA (sugars k3 d10 k3, PS) showed a target mRNA inhibition (1 µM) of 5%.
In the case of GGATTAATCATGGGAC (sugars k3 d10 k3, PS), the target mRNA inhibition (1 µM) was 44%.
As to GGATTAATTCCCTTCC (sugars k3 d10 k3, PS), the target mRNA inhibition (1 µM) turned out to be 10%.
In turn, GGATTGCAGAAGAGTA (sugars k3 d10 k3, PS) yielded a target mRNA inhibition (0.02 µM) of 0%; a target mRNA inhibition (0.078 µM) of 13%; a target mRNA inhibition (0.313 µM) of 47%; a target mRNA inhibition (1 µM) of 76%; a target mRNA inhibition (1.25 µM) of 77%; a target mRNA inhibition (5 µM) of 74%.
